According to US20030092757A1, “Favorable modulation of health-related quality of life and health-related quality-adjusted time-to-progression of disease in patients with prostate cancer” (priority 2001, published 2003):

Experiments:
[1] = test system: patients having hormone refractory prostate cancer (HRPCa); assay: Time to disease or PSA progression across treatment groups; format: in vivo, human; conditions: intent-to-treat population
Method: Patients received treatment with 10 mg (N=89) or 2.5 mg (N=95) of atrasentan or placebo (N=104) until experiencing a clinical event indicative of disease progression such as palliative opiate treatment of new bone or visceral pain, palliative radiation treatment of new bone pain, or new tumor growth symptoms requiring intervention or treatment with chemotherapy.

[2] = test system: patients having hormone refractory prostate cancer (HRPCa); assay: Area under the Curve (AUC) analysis of health-related QoL domain scores, one year follow-up assumed; format: in vivo, human
Description: The Kaplan-Meier product limit method may provide biased results if study data are obtained under certain conditions such as staggered entry of subjects into the study and/or incomplete follow-up (Biometrics. 1989; 5:781-795). Thus, a second analysis was implemented to verify that the conclusions derived from the Kaplan-Meier method would remain robust to the length of follow-up. The assumption was that all patients were followed for one year. Patients who discontinued from the study prior to one year of observation had their last observation for all health-related QoL domains carried forward through the remainder of the year. Similarly, patients who had not completed one year of observation had their health-related QoL data carried forward through one year. If the patient experienced a clinical event within the one year period, the last observation was not carried forward. The Area under the Curve (AUC) value for each domain was computed by multiplying the health-related QoL domain score by the respective duration of that score. Finally, AUC values were aggregated across all subjects within each respective treatment group (atrasentan (10 mg), atrasentan (2.5 mg), and placebo). Aggregated AUC values for each domain were compared for differences between treatment groups using a t-test.

## CCCCN(CCCC)C(=O)CN1C[C@H](c2ccc3c(c2)OCO3)[C@@H](C(=O)O)[C@@H]1c1ccc(OC)cc1 [atrasentan, (2R,3R,4S)-2-(4-methoxyphenyl)-4-(1,3-benzodioxol-5-yl)-1-(((N,N-dibutylamino)carbonyl)methyl)pyrrolidine-3-carboxylic acid]
[1]
  differences in either the time to disease or PSA progression across treatment groups: no statistically significant differences
[2]; 2.5 mg, except for dyspnea, social/family, functional well-being, and FACT-P domain scores
  AUC results: significantly improved
[2]; 10 mg vs 2.5 mg
  AUC analysis, responses in the 10 mg and 2.5 mg treatment groups: not statistically differentiable
[2]; Intent to Treat population
  AUC analysis, atrasentan treatment vs placebo groups: no statistical differences
[2]; per-protocol population, every health-related QoL domain score
  AUC analysis vs placebo: strong trends in favor
[2]; physical functioning, social functioning, and pain, p<0.05
  AUC for the health-related QoL domain scores: significantly longer
